Values of other authors in patent US12005094B2, “Inhibitor of inflammatory conditions” (Compton Developments Ltd., priority 2009, dated 2024).

Assays:
[1] = system: EAE; settings: Clomipramine vs vehicle control, divergent from day 10
[2] = system: ear edema; settings: topical
[3] = system: lipoxygenase products
[4] = system: antigen-induced arthritis; settings: oral administration
[5] = system: skin edema and hyperplasia; settings: topical administration

CN(C)CCCN1c2ccccc2CCc2ccc(Cl)cc21 [Clomipramine]
onset of disease symptoms (average EAE scores) [1]: delayed

C=C(C)[C@@H]1CC[C@]2(C)CC[C@]3(C)[C@H](CC[C@@H]4[C@@]5(C)CC[C@H](O)C(C)(C)[C@@H]5CC[C@]43C)[C@@H]12 [Lupeol, lupeol]
PGE2 [2]: significant reduction in PGE2 | ear edema [2]: suppressed ear edema | nitrite release [2]: weaker inhibition of nitrite release | effect on lipoxygenase products [3]: no effect on lipoxygenase products | reduction in paw swelling [4]: 39% | skin edema and hyperplasia [5]: significantly inhibited skin edema and hyperplasia
